Experimental data as given in patent US5304474A, “Hydrophobic peptide esters and amides” (Board of Regents, The University of Texas System, priority 1991, dated 1994).
Peptide text beside a SMILES is read from it.

Test system: natural killer cells (NK)
Test: NK function: lysis of K562 target cells (51Cr release) after preincubation of lymphocytes with compound
Details: for NK toxicity / effect on NK function, in words: lymphocytes exposed 15 minutes at room temperature (FIG. 4, FIG. 5); for NK Function % Specific Lysis K562: Nil 40.8 (Table 16); for prevention of Leu-OMe ablation of NK activity / permanent effect on NK function: PBM; for prevention of Leu-OMe ablation of NK activity: 5 mM Leu-OMe with lysosomal inhibitor (FIG. 1); for permanent effect on NK function: agent alone, washed, 18 hours culture, E:T 40:1 (FIG. 1); for effect of unesterified dipeptides on NK cell survival or lytic activity: up to 5×10^-3 M
Procedure: PBM were separated from heparinized venous blood of healthy donors by centrifugation over sodium diatrizoate-Ficoll gradients (Isolymph, Gallard-Schlesinger Chemical Mfg. Corp., Carle Place, N.Y.).
All cell exposures to the amino acids, dipeptides or their methyl esters were carried out by suspending cells in Dulbecco's phosphate buffered saline (PBS) and incubating them at room temperature with the reagent at the indicated concentration and time interval.
Percent of control cytotoxicity was calculated using the formula: [formula]

Compound	NK toxicity / effect on NK function, in words	other results
COC(=O)[C@H](CC(C)C)NC(=O)[C@H](C)N [Ala-Leu-OMe] (H-Ala-Leu-OMe)	had no NK inhibitory effects	–
COC(=O)[C@H](CC(C)C)NC(=O)CN [Gly-Leu-OMe]	greatly reduced NK toxicity	–
NCC(=O)N[C@@H](Cc1ccccc1)C(N)=O [Gly-Phe-NH2] (H-Gly-Phe-NH2)	has no apparent NK toxic effects	NK Function % Specific Lysis K562 (250 micro-M): 43.9%
COC(=O)[C@H](Cc1ccccc1)NC(=O)CN [Gly-Phe-OMe] (H-Gly-Phe-OMe)	a much less potent NK toxin than is Leu-Leu-OMe	NK Function % Specific Lysis K562 (250 micro-M): 34.5%; NK Function % Specific Lysis K562 (500 micro-M): 10.1%
CC[C@H](C)[C@H](N)C(=O)OC [Ile-OMe, reference compound]	–	prevention of Leu-OMe ablation of NK activity: largely prevented; permanent effect on NK function: neither chloroquine, NH4 Cl, nor Ile-OMe had any substantial permanent effect on NK function
COC(=O)[C@H](CCCNC(=N)N)NC(=O)[C@@H](N)CC(C)C [Leu-Arg-OMe]	no observed NK inhibitory effects	–
COC(=O)CNC(=O)[C@@H](N)CC(C)C [Leu-Gly-OMe] (H-Leu-Gly-OMe)	greatly reduced NK toxicity	–
CC(C)C[C@H](N)C(=O)N[C@@H](Cc1ccccc1)C(=O)O [Leu-Phe, L-leucyl L-phenylalanine, reference compound] (H-Leu-Phe-OH)	–	effect of unesterified dipeptides on NK cell survival or lytic activity: had no effect on NK cell survival or lytic activity
CC(C)C[C@H](N)C(=O)O [Leucine, L-leucine, reference compound]	had no irreversible effect on NK function	–
COC(=O)[C@H](CC(C)C)NC(=O)[C@@H](N)CCCCN [Lys-Leu-OMe] (H-Lys-Leu-OMe)	no observed NK inhibitory effects	–
Cl.N [NH4 Cl, reference compound]	–	prevention of Leu-OMe ablation of NK activity: largely prevented; permanent effect on NK function: neither chloroquine, NH4 Cl, nor Ile-OMe had any substantial permanent effect on NK function
CC(C)C[C@H](NC(=O)[C@@H](N)Cc1ccccc1)C(=O)O [Phe-Leu, L-phenylalanyl L-leucine, reference compound] (H-Phe-Leu-OH)	–	effect of unesterified dipeptides on NK cell survival or lytic activity: had no effect on NK cell survival or lytic activity
COC(=O)[C@H](CC(C)C)NC(=O)[C@@H](N)Cc1ccccc1 [Phe-Leu-OMe] (H-Phe-Leu-OMe)	produced concentration-dependent ablation of NK function at concentrations comparable to those at which Leu-Leu-OMe was active	–
COC(=O)[C@@H](NC(=O)[C@@H](N)Cc1ccccc1)C(C)C [Phe-Val-OMe] (H-Phe-Val-OMe)	markedly less active than Val-Phe-OMe	–
CC(C)C[C@H](NC(=O)[C@@H](N)C(C)C)C(=O)O [Val-Leu, L-valyl L-leucine, reference compound] (H-Val-Leu-OH)	–	effect of unesterified dipeptides on NK cell survival or lytic activity: had no effect on NK cell survival or lytic activity
COC(=O)[C@H](CC(C)C)NC(=O)[C@@H](N)C(C)C [Val-Leu-OMe] (H-Val-Leu-OMe)	produced concentration-dependent ablation of NK function at concentrations comparable to those at which Leu-Leu-OMe was active	–
CC(C)[C@H](N)C(=O)N[C@@H](Cc1ccccc1)C(=O)O [Val-Phe, L-valyl L-phenylalanine, reference compound] (H-Val-Phe-OH)	–	effect of unesterified dipeptides on NK cell survival or lytic activity: had no effect on NK cell survival or lytic activity
COC(=O)[C@@H](NC(=O)[C@@H](N)C(C)C)C(C)C [Val-Val-OMe] (H-Val-Val-OMe)	less active than either Leu-Val-OMe or Val-Leu-OMe	–
